Test [1] concerns adipocyte strain 3T3L-1. In words: Differentiation of precursor adipocytes into adipocytes (Oil Red O staining, absorbance of extract). The following applies: culture for 13 days; for Absorbance (490 nm): Oil Red O extracted with isopropanol, Control 0.266. Format: cell-based. The protocol: (§1) Therefore, effect of the medicaments of the present invention on enhancement of differentiation of precursor adipocytes into adipocytes was examined by using an adipocyte strain 3T3L-1 (obtained from Japanese Cancer Research Resource Bank) according to the published method (Endocrinology, 137, 4706, 1996). The cells were cultured in a culture dish having a diameter of 6 cm as a monolayer, and added with HX600, HX-620, HX-630, or HX-640 when the cells reached a density at which the cells began to contact with one another. After the culture for 13 days, lipid droplets in the cells were stained with Oil Red O. The dye was extracted with 1.0 ml of isopropanol (a modified method described in Methods in Enzymology, 32, 192), and absorbance (490 nm) of the extract was measured and used as index of differentiation into adipocytes.

The subject of test [2] is adipocyte strain 3T3L1. In words: Enhancement of the differentiation of precursor adipocytes into adipocytes induced by a thiazoline compound (troglitazone). The format is cell-based. The following applies: for Absorbance (490 nm): single compound 10^−7 M, culture 10 days, Control 0.086.
Description: The culture was continued for 10 days.
Test [3] relates to diabetic mice (C57BL/6J-Lepob). Briefly: Hypoglycemic action in diabetes model mice (blood glucose and acylglycerol level). The following applies: for Blood acylglyerol level, percentage based on the control group / Blood glucose level, percentage based on the control group / Blood acylglyerol level / Blood glucose level: 6th day; for Blood acylglyerol level: Control 132 ± 14; for Blood glucose level: Control 428 ± 82. The format is in vivo. The protocol: Experiments were performed by using diabetic mice hereditarily have pathological conditions of fatness, hyperglycemia, and hyperlipidemia (C57BL/6J-Lepob, female, Jackson Laboratory, 10-week old) according to the method described in the literature (Diabetologia, 14, 141, 1978). Blood samples were collected one day before the start of the administration, and the mice were divided into three groups (one group consisted of 4 or 5 mice). One group was used as a medication group, and each mouse of the group was orally administered with HX-600 suspended in 0.1% carboxymethylcellulose as microparticules (30 mg/kg/day or 100 mg/kg/day) every day for 6 days. Mice of the control group were orally administered with only 0.1% carboxymethylcellulose. On the 6th day after the start of the administration, blood samples were collected from ophthalmic fundus veins.
Blood glucose level was measured by the glucose oxidase method (Fuji Drychem Slide GLU-P), and acylglycerol level was measured by the glycerol phosphate dehydrogenase method (Fuji Drychem Slide TG-P). As a measurement apparatus, Fuji Drychem 5000 was used. […] Percentages based on the control group are also indicated.

Test [4] concerns adipocyte strain 3T3L-1. Briefly: Enhancement of the differentiation of precursor adipocytes into adipocytes induced by insulin. Format: cell-based. The following applies: for Absorbance (490 nm): culture 9 days, Not added 0.072. The protocol:
as §1
Synergistic effect of insulin used for therapeutic treatment of diabetes and the medicament of the present invention was examined. Cells of the adipocyte strain 3T3L-1 were cultured in a culture dish having a diameter of 3.5 cm as a monolayer, and added with 10 μg/ml of insulin and HX-600 (10^−6 M or 10^−8 M) when the cells reached a density at which the cells began to contact with one another. The culture was continued for 9 days.

Setting [5] is: 30 mg/kg/day and 100 mg/kg/day, 6th day of the administration.

Regarding “4-[2,3-(2,5-dimethyl-2,5-hexano)dibenzo[b,e]azepin-11-yl]benzoic acid [HX-640]”, the “Absorbance (490 nm)” value in test [1] (10^−6 M) came to 0.825; in test [1] (10^−7 M), 0.694; in test [1] (10^−8 M), 0.365. In addition, in test [1], the “differentiation of precursor adipocyte 3T3L-1 into adipocytes (in words)” value is given as “strongly promoted”.

For `Cc1c(C)c2c(c(C)c1O)CCC(C)(COc1ccc(CC3SC(=O)NC3=O)cc1)O2` (stereo not drawn) [CS-045, troglitazone, reference compound], the “Absorbance (490 nm)” value in test [2] amounted to 0.171.

For `CN1c2ccccc2N=C(c2ccc(C(=O)O)cc2)c2cc3c(cc21)C(C)(C)CCC3(C)C` [HX-600, 4-[5H-2,3-(2,5-dimethyl-2,5-hexano)-5-methyldibenzo [b,e][1,4]diazepin-11-yl]benzoic acid], the “acylglycerol level versus the control group (in words)” value in test [3] (setting [5]) is recorded as “remarkably lower”. In addition, in test [3] (setting [5]), the “blood glucose level versus the control group (in words)” value is given as “remarkably lower”. For the same compound, the “Blood acylglyerol level, percentage based on the control group” value in test [3] (30 mg/kg/day oral for 6 days) was determined as 79.5%; in test [3] (100 mg/kg/day oral for 6 days) it was 72.7%. The “Blood glucose level, percentage based on the control group” value in test [3] (30 mg/kg/day oral for 6 days) is recorded as 60.3%; in test [3] (100 mg/kg/day oral for 6 days) it was 55.6%. The values for the Blood acylglyerol level in test [3] (30 mg/kg/day oral for 6 days) and in test [3] (100 mg/kg/day oral for 6 days) were 105 ± 14 mg/dL and 96 ± 11 mg/dL, respectively. Further, the figures for the Blood glucose level in test [3] (30 mg/kg/day oral for 6 days) and in test [3] (100 mg/kg/day oral for 6 days) were 258 ± 56 mg/dL and 238 ± 59 mg/dL, respectively. Besides, the “action of inducing differentiation into adipocytes by CS-045 (in words)” value in test [2] (HX600 10^−7 M with CS-045 10^−7 M, 10 days) is “synergistically promoted”. Further, the “Absorbance (490 nm)” value stood at 0.131 in test [2]; 0.690 in test [1] (10^−6 M); 0.445 in test [1] (10^−7 M); 0.274 in test [1] (10^−8 M); 0.287 in test [4] (HX-600 10^−6 M alone); 0.118 in test [4] (HX-600 10^−8 M alone). Moreover, in test [1], the “differentiation of precursor adipocyte 3T3L-1 into adipocytes (in words)” value was “strongly promoted”. The “differentiation into adipocytes induced by the action of insulin (in words)” value in test [4] (HX-600 10^−6 M and 10^−8 M with insulin 10 μg/ml, 9 days) is “synergistically promoted”.

As to `CC1(C)CCC(C)(C)c2cc3c(cc21)Oc1ccccc1N=C3c1ccc(C(=O)O)cc1` [HX-620, 4-[2,3-(2,5-dimethyl-2,5-hexano)dibenzo[b,f][1,4]oxazepin-11-yl]benzoic acid], the entries for the “Absorbance (490 nm)” value in test [1] (10^−6 M), in test [1] (10^−7 M) and in test [1] (10^−8 M) were 0.543, 0.308 and 0.225, respectively. The “differentiation of precursor adipocyte 3T3L-1 into adipocytes (in words)” value in test [1] is “strongly promoted”.

`CC1(C)CCC(C)(C)c2cc3c(cc21)Sc1ccccc1N=C3c1ccc(C(=O)O)cc1` [HX-630, 4-[2,3-(2,5-dimethyl-2,5-hexano)dibenzo[b,f][1,4]thiazepin-11-yl]benzoic acid]: the “Absorbance (490 nm)” value in test [1] (10^−6 M) was determined as 0.745; in test [1] (10^−7 M), 0.471; in test [1] (10^−8 M), 0.298. In addition, in test [1], the “differentiation of precursor adipocyte 3T3L-1 into adipocytes (in words)” value was “strongly promoted”.

Turning to insulin, the “Absorbance (490 nm)” value in test [4] (insulin 10 μg/ml alone) is 0.301.

The values are drawn from patent publication US6458782B1, “Remedies for diabetes” (priority 1997, dated 2002).
